Data as given in patent publication US20130315828A1, “KIT AND METHOD OF USE OF TARGETING PEPTIDE FOR DIAGNOSIS AND THERAPY OF CANCER” (NATIONAL TSING HUA UNIVERSITY, priority 2012, published 2013).

How the values were obtained:
[1] = FACE, GBP binding to heparin and desulfated heparins; settings: LMWH and desulfated heparins; FIG. 1B
Protocol: (§1) Fluorophore-assisted carbohydrate electrophoresis (FACE) is carried out by pre-mixing (A) AMAC-labeled LMWH, chondroitin sulfate (CS), and dermatan sulfate (DS) and (B) AMAC-labeled LMWH, de-2-O-sulfated heparin, de-6-O-sulfated heparin, and N-acetyl-de-O-sulfated heparin (0.33 nmol) with indicated fold molar excess of GBP before incubated with or without peptide in PBS at 25° C. for 15 min. The reaction products are separated on a 1% agarose gel. The reacted probe and protein are shown above the gel. Relative intensity (%) of free probe and the unlabeled competitors are shown at the bottom of the gel.
(§2) Carbohydrate were labeled with 2-aminoacridone (AMAC) (Invitrogen, catalog no. A6289) according to previous study (Calabro, A., Benavides, M., Tammi, M., Hascall, V. C., and Midura, R. J. (2000) Microanalysis of enzyme digests of hyaluronan and chondroitin/dermatan sulfate by fluorophore-assisted carbohydrate electrophoresis (FACE), Glycobiology 10, 273-281). Briefly, fifty micrograms GAGs were dried by freeze-drying machine, and then incubated with 40 μl 1.25 M 2-aminoacridone (AMAC)/85% DMSO/15% acetic acid at 25° C. for 15 min. Forty microliters of 1.25 M sodium cyanoborohydride (NaBH3CN) was added and incubated at 37° C. for 16 h. Afterwards, 720 μl 99% ice-cold ethanol was added at −20° C. for 15 min, then centrifugation at 11,000×g at 4° C. for 5 min. […]

neoplastic lung tissues = experiment: IHC targeting of GBP in lung cancer tissue arrays, overall; assay type: binding, human
Protocol: The 5 μm slides were dried in the oven at 60° C. for 1 h. Briefly, the sections were deparaffinized with xylene (J. T. Baker Phillipsburg, N) for 15 min and rehydrated in graded ethanol solutions. Endogenous peroxidase activity was blocked by incubating the sections in a 3% hydrogen peroxide solution in distilled water for 10 min. The sections were then washed and placed in phosphate buffer for 10 min. Antigen retrieval was achieved by heat treatment using 10 mM citrate buffer solution pH 6.0 or by 0.1% trypsin treatment for 5 min (for 10E4). After the slides were blocked in 3% BSA solution for 1 h and incubated with 2 μM eGFP-GBP fusion protein for 2 h (for eGFP), these sections were then incubated with 10E4 antibody (1:200 dilution) and eGFP antibody (1:200 dilution) at 4° C. overnight, individually. […]
Every tumor was given a score according to the intensity of the nuclear or cytoplasmic staining (no staining=0; weak staining=1; moderate staining=2; strong staining=3) and the extent of stained cells (0-10%=0; 11-50%=1; 51-80%=2; 81-100%=3). The final immunoreactive score was determined by multiplying the intensity and extent of positivity scores of stained cells, with the minimum score of 0 and a maximum score of 9.
Specimen scores from 61 cases of lung cancers from tissue arrays were used for quantitative evaluation of IHC data. […]

[2] = Fluorophore-assisted carbohydrate electrophoresis (FACE), GBP binding to glycosaminoglycans; settings: LMWH, CS, DS; PBS, 25° C., 15 min; FIG. 1A
Protocol: as §1, §2

NYRWRCKNQN [GBP]
GBP recognition of sulfated HS / heparin derivatives (FACE) [1]: identified sulfated HS, especially preferring O-sulfated heparin
GBP recognition, aggressive versus early stage of cancer (neoplastic lung tissues): higher recognition toward more aggressive tumor progression
GBP binding to glycosaminoglycans (FACE) [2]: probed universal glycosaminoglycans including low molecular weight heparin, chondroitin sulfate and dermatan sulfate
